# Measurements from US11407715B2, “Substituted indoline derivatives as dengue viral replication inhibitors” (JANSSEN PHARMACEUTICALS, INC., priority 2017, dated 2022).
# Key:
# in vitro = conditions: African green monkey
# DENV-2 16681 strain = test: microbe, parasite or virus in culture; assay type: cell-based, Dengue virus; conditions: for EC50: DENV-2 16681 eGFP, Vero cells, MOI 0.5, 3 days; for SI: SI=CC50/EC50, DENV-2 antiviral assay
# [1] = Dengue virus, DENV2, Vero, 72 h
structure (smiles),measurement,setting,value
"COc1cc(NC(C(=O)N2CCc3ccc(OC(F)(F)F)cc32)c2ccc(Cl)cc2)cc(OCCCCC(=O)O)c1 (racemic) [Compound 13, 5-(3-((1-(4-chlorophenyl)-2-oxo-2-(6-(trifluoromethoxy)-indolin-1-yl)ethyl)amino)-5-methoxyphenoxy)pentanoic acid]",CC50,in vitro,12 µM
same,EC50,DENV-2 16681 strain; [1],0.25 nM
same,SI,DENV-2 16681 strain,38100
COc1cc(NC(C(=O)N2CCc3cc(OC)c(C(F)(F)F)cc32)c2ccc(Cl)cc2)cc(OC2CC(C(=O)O)C2)c1 (stereo not drawn) [Compound 23A],CC50,in vitro,11 µM
same,EC50,DENV-2 16681 strain,34 nM
same,SI,DENV-2 16681 strain,321
"COc1cc(NC(C(=O)N2CCc3cc(OC)c(C(F)(F)F)cc32)c2ccc(Cl)cc2)cc(O[C@H]2C[C@@H](C(=O)O)C2)c1 (stereo partly drawn) [Compound 23, (1s,3s)-3-(3-((1-(4-chlorophenyl)-2-(5-methoxy-6-(trifluoromethyl)indolin-1-yl)-2-oxoethyl)amino)-5-methoxyphenoxy)cyclobutene-carboxylic Acid]",CC50,in vitro,12 µM
same,EC50,DENV-2 16681 strain; [1],0.093 nM
same,SI,DENV-2 16681 strain,116424
"COc1cc(NC(C(=O)N2CCc3ccc(OC(F)(F)F)cc32)c2ccc(Cl)cc2)cc(OCCCCC(=O)O)c1 (single isomer, unassigned) [Compound 13A]",CC50,in vitro,9.1 µM
same,EC50,DENV-2 16681 strain,1.4 nM
same,SI,DENV-2 16681 strain,5720
"COc1cc(NC(C(=O)N2CCc3cc(OC)c(C(F)(F)F)cc32)c2ccc(Cl)cc2)cc(OCCC(C)(C)C(=O)O)c1 (single isomer, unassigned) [Compound 21A]",CC50,in vitro,11 µM
same,EC50,DENV-2 16681 strain,16 nM
same,SI,DENV-2 16681 strain,687
"COc1cc(NC(C(=O)N2CCc3ccc(OC(F)(F)F)cc32)c2ccc(Cl)cc2)cc(OCCC(C)(C)C(=O)O)c1 (racemic) [Compound 2, 4-(3-((1-(4-chlorophenyl)-2-oxo-2-(6-(trifluoromethoxy)indolin-1-yl)ethyl)amino)-5-methoxyphenoxy)-2,2-dimethylbutanoic acid]",CC50,in vitro,12 µM
same,EC50,DENV-2 16681 strain; [1],0.62 nM
same,SI,DENV-2 16681 strain,19200
"COc1cc(NC(C(=O)N2CCc3ccc(OC(F)(F)F)cc32)c2ccc(Cl)cc2)cc(OCCC(C)C(=O)O)c1 (racemic) [Compound 1, 4-(3-((1-(4-chlorophenyl)-2-oxo-2-(6-(trifluoromethoxy)indolin-1-yl)ethyl)amino)-5-methoxyphenoxy)-2-methylbutanoic acid]",CC50,in vitro,11 µM
same,EC50,DENV-2 16681 strain; [1],0.5 nM
same,SI,DENV-2 16681 strain,24400
"COc1cc(NC(C(=O)N2CCc3ccc(OC(F)(F)F)cc32)c2ccc(Cl)cc2)cc(OCC23CC(C(=O)O)(C2)C3)c1 (racemic) [Compound 9, 3-((3-((1-(4-chlorophenyl)-2-oxo-2-(6-(trifluoro-methoxy)indolin-1-yl)ethyl)amino)-5-methoxyphenoxy)methyl)bicyclo[1.1.1]pentane-1-carboxylic acid]",CC50,in vitro,9.8 µM
same,EC50,DENV-2 16681 strain; [1],0.7 nM
same,SI,DENV-2 16681 strain,14700
COc1cc(NC(C(=O)N2CCc3cc(OC)c(C(F)(F)F)cc32)c2ccc(Cl)cc2)cc(OCC2CC2C(=O)O)c1 (stereo not drawn) [Compound 22AA],CC50,in vitro,13 µM
same,EC50,DENV-2 16681 strain,16 nM
same,SI,DENV-2 16681 strain,798
COc1cc(NC(C(=O)N2CCc3ccc(OC(F)(F)F)cc32)c2ccc(Cl)cc2)cc(OCC2CC(C(=O)O)C2)c1 (stereo not drawn) [Compound 10],CC50,in vitro,12 µM
same,EC50,DENV-2 16681 strain,0.27 nM
same,SI,DENV-2 16681 strain,44900
"COc1cc(NC(C(=O)N2CCc3cc(OC)c(C(F)(F)F)cc32)c2ccc(Cl)cc2)cc(OCCC(C)C(=O)O)c1 (single isomer, unassigned) [Compound 20A]",CC50,in vitro,12 µM
same,EC50,DENV-2 16681 strain,440 nM
same,SI,DENV-2 16681 strain,27
"COc1cc(NC(C(=O)N2CCc3ccc(OC(F)(F)F)cc32)c2ccc(Cl)cc2)cc(OCC2(CC(=O)O)CC2)c1 (racemic) [Compound 5, 2-(1-((3-((1-(4-chlorophenyl)-2-oxo-2-(6-(trifluoromethoxy)indolin-1-yl)ethyl)amino)-5-methoxyphenoxy)methyl)cyclopropyl)acetic acid]",CC50,in vitro,9.7 µM
same,EC50,DENV-2 16681 strain; [1],0.92 nM
same,SI,DENV-2 16681 strain,11300
